Results taken from patent US20260306463A1, “SIK INHIBITORS TO TREAT CHRONIC KIDNEY DISEASE” (The General Hospital Corporation, priority 2023, published 2026).
“Also recorded” adds a separate entry of the source.

Assays:
bone and kidney = bone and kidney (ref. 7); cited from earlier work
[1] = tested on: whole kidney transcriptome; assay: bulk RNA-sequencing of whole kidney, adenine CKD mice; type: in vivo, mouse; settings: bulk RNA-seq
Protocol: (§1) FIGS. 6A-6F. The effects of SK-124 treatment at the transcriptomic level in adenine-induced mouse chronic kidney disease. RNA-seq was performed on whole kidney RNA samples (n=7/group) from FIG. 1. Volcano plot show gene regulated (>2-fold change, p(adj)<0.05) by CKD (versus control diet, A) or in CKD by SK-124 (versus vehicle control, B). In Volcano plot, representative fibrosis markers (Col3a1, Vim, Serpinel) and proximal tubule integrity (Lrp2. Atplai, and Hnf4a) are shown. Scatterplot (C) and heatmap (D) showing integration of individual RNA-seq comparisons. […] (E) Single cell RNA-sequencing was performed on dissociated kidneys from adenine diet fed mice treated with vehicle or SK-124 (n=4/group). […] (F) Relative cellularity of each annotated cluster is shown in pie chart format for adenine+vehicle (CKD-Veh) or adenine+SK-124 (CKD-SK-124) mice.
(§2) Isolated RNA samples from the mouse adenine diet study and human kidney organoid experiment were submitted to Novogene and bulk-RNA sequencing on NovaSeq X Plus Ilumina Novoseq Platform. Sequencing reads were mapped to the mouse reference genome (mm10/GRCm38) or human reference genome (GRCh38/hg38) using Salmon and differential gene expression analysis was performed using DESeq2.

[2] = tested on: mice with adenine diet-induced chronic kidney disease; assay: 8 week adenine diet CKD study, SK-124 versus once daily PTH injections; type: in vivo, mouse (female CD1); settings: 8 weeks
Protocol: FIGS. 4A-4D. […] (A) Study design: Female CD1 mice (n=8/group) were treated with control or 0.2% adenine diet starting at […] of age along with vehicle, PTH (80 mcg/kg/d, IP injections) or SK-124 (40 mg/kg) treatment by oral gavage once daily. Mice were treated for 8 weeks. (B, C) After 8 weeks of treatment, the indicated serum analyte was measured. (D) Whole kidney RNA from the indicated groups was analyzed by RT-qPCR for the indicated fibrosis marker gene.
7-week-old female CD1 mice were obtained from Charles River Laboratories (Wilmington, MA) and were fed on 0.2% adenine containing diet (TD.130900; 0.2% Adenine, 0.9% Phosphate, 0.5% Calcium; Envigo) or control diet (TD. 96348) for 6 or 8 weeks to induce chronic kidney disease (CKD). Mice were oral gavaged with 40 mg/kg SK-124, or intraperitonially injected with 80 μg/kg PTH, or treated with vehicle 5 days a week for the duration of the special diet.
For studies with Ubiquitin-Cre^ERt2; Sik2^ff; Sik3^ff mice (JAX #007001 for Ubiquitin-Cre^ERt2: RRID:MGL:5905012 for Sik2 foxed mice; and Sik3^tmla(EUCOMM)Hmgu mice (RRID:MGI:5085429) bred to PGK1 FLPo mice (JAX #011065) in order to generate Sik3 foxed mice), tamoxifen was injected (1 mg, IP, Q48 hours, 3 injections total) in all animals including Cre-negative control littermates housed in cages with Pure-o′Cel bedding at 5 weeks of age. Mice were then fed on 0.2% adenine diet from 6 weeks to 9 weeks of age. Mice were fasted for 6 hours and treated with SK-124 and PTH 4 hours and 2 hours before the sacrifice. Blood and spot urine samples were collected by cheek pouch bleeding and by pipetting urine collected on hydrophobic sand (Labsand; Braintree, MA). Kidneys were immediately snap-frozen in liquid nitrogen for TRIzol (Life Technologies)-Chloroform (Fischer Scientific) based RNA isolation or protein isolation, or fixed in 10% formalin at 4C for 24 hrs for histology. All serum and urine measurements were performed using commercial bioassay detection reagents listed in Table 1, following the manufacturers' instructions. Urine protein levels were measured by Bradford assay and normalized to urine creatinine.
cDNA was prepared using Primescript RT kit (Takara Inc), with 750 ng RNA per reaction. RT-qPCR was performed by using PerfeCa® SYBR® Green FAstMix® ROX (Quanta bio) in the StepOnePlus™ Real-time PCR System (Applied Biosystems). Hmbs was used as a control housekeeping gene for mouse samples, and B-Actin was used for organoids, relative expression was calculated (2^-deltaCT method) and compared to the mean of control group if necessary. Primers used for RT-qPCR are listed in Table 2 (mouse primers) and Table 3 (human primers).

kidney cell clusters = assay: single cell RNA-sequencing of dissociated kidneys, adenine CKD mice; type: in vivo, mouse; settings: SK-124 vs vehicle, adenine diet
Protocol: as §1
To perform single cell RNA sequencing, mouse kidneys were harvested and immediately dissociated in liberase TH (Millipore Sigma, 05401135001) at 37 degrees for 1 hour at 600 rpm. After removing red blood cells using red blood cell lysis buffer (Sigma, R7757), the cells were further dissociated in Accumax (Stemcell Technologies, 7921) and submitted to MGH Department of Molecular Biology for gel beads in emulsion (GEM) formation and subsequent single cell RNA sequencing using the 10× Genomics Chromium 3′ droplet-based sequencing platform. The CellRanger toolkit (v6.0.2) by 10× Genomics was used to 1) align the sequencing reads to the mouse reference transcriptome (mm10). 2) quantify gene expression, resulting in gene-by-cell UMI count matrices, and 3) aggregate all samples into a single feature barcode matrix containing all the data for downstream analysis. All single cell data analysis was performed in the R software environment for statistical computing and graphics using the package Seurat.

[3] = tested on: mouse CKD kidneys and human kidney organoids; assay: overlap of injury-regulated genes rescued by SK-124 in mouse adenine diet and human cisplatin organoid studies; settings: Venn overlap, both CKD models
Protocol: FIGS. 13A-13E. Transcriptomic effects of SK-124 in cisplatin-induced human kidney organoid model. RNA-seq was performed on kidney organoid RNA samples (n=4/group) from FIG. 8. Volcano plot show gene regulated (>2-fold change, p(adj)<0.05) by cisplatin (versus vehicle, A) or within cisplatin-treated organoids by SK-124 (versus DMSO control, B). In Volcano plot, representative fibrosis/injury markers (Col8a1, Fni, Serpinel) and proximal tubule integrity (Lrp2 and Hnf4a) are shown. Scatterplot (C) and heatmap (D) showing integration of individual RNA-seq comparisons.
as §2

[4] = adenine vs control diet, or SK-124 vs vehicle in CKD mice

CCc1nnc(-c2c(OC)cc(-c3cnc4cc(-c5cnn(C)c5)ccn34)cc2OC)o1 [SK-124, 2-[2,6-Dimethoxy-4-[7-(1-methylpyrazol-4-yl)imidazo[1,2-a]pyridin-3-yl]phenyl]-5-ethyl-1,3,4-oxadiazole]
PTH-like effects in vivo (bone and kidney): PTH-like effects in vivo in bone and kidney | patterns of dysregulated gene expression in CKD ([1]; scatterplot and heat map, SK-124 vs vehicle): conversely regulated; also recorded: reversed | injury markers (Col3a1, Vim, Serpine1) [1, 4]: suppressed | markers of intact proximal epithelial cells (Lrp2, Atpla1, Hnf4a) / epithelial cell integrity [1, 4]: preserved expression | CKD-MBD markers ([2]; SK-124 40 mg/kg oral gavage once daily, or PTH 80 mcg/kg/d IP): reduced CKD-MBD markers | kidney function ([2]; SK-124 40 mg/kg oral gavage once daily, or PTH 80 mcg/kg/d IP, 40 mg/kg): improved kidney function | fibrosis marker gene expression ([2]; whole kidney RT-qPCR, SK-124 40 mg/kg oral, or PTH 80 mcg/kg/d IP): reduced fibrosis marker gene expression | fibroblast cluster cellularity (kidney cell clusters): reduces fibroblast cluster cellularity | injury markers (failed repair proximal tubule cells, fibroblasts, and myofibroblasts) (kidney cell clusters): reduced injury markers | numbers of healthy proximal tubule (epithelial) cells (kidney cell clusters): increases numbers of healthy epithelial cells; also recorded: increased numbers of healthy proximal tubule cells | conserved genes induced with injury and reduced by SK-124 [3]: 419 genes | conserved genes suppressed by injury and restored by SK-124 [3]: 373 genes
